Experimental data from paper PMC8472287, “Betulinic Acid Decorated with Polar Groups and Blue Emitting BODIPY Dye: Synthesis, Cytotoxicity, Cell-Cycle Analysis and Anti-HIV Profiling” (Biomedicines, 2021).
pIC50: −log10 of the molar value. Counter-ions that a name gives are not always drawn. Like-named read-outs stand apart in the source and are kept apart here.

What was measured:
[1] = tested on: K562; assay: MTS cytotoxicity assay, K562; type: cell-based; details: Homo sapiens, 72 h, 3-day incubation
In short: (§1)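 Cells seeded at 25,000–35,000 cells/mL were exposed to four-fold dilutions of compound in DMSO for 72 h at 37 °C, 5% CO2. MTS added for 1–4 h, OD read at 490 nm; tumour cell survival calculated as percent of control-well OD.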

[2] = tested on: HCT116p53−/−; assay: MTS cytotoxicity assay, HCT116p53−/−; type: cell-based; details: Homo sapiens, HCT116-p53-null, 72 h, HCT116p53−/− (null p53 gene), 3-day incubation
In short: as §1

[3] = tested on: MRC-5; assay: MTS cytotoxicity assay, MRC-5; type: cell-based; details: Homo sapiens, MRC5, 72 h, MRC-5 normal fibroblasts, 3-day incubation
In short: as §1

[4] = tested on: U2OS; assay: MTS cytotoxicity assay, U2OS; type: cell-based; details: Homo sapiens, 72 h, 3-day incubation
In short: as §1

[5] = tested on: K562-Tax; assay: MTS cytotoxicity assay, K562-Tax; type: cell-based; details: Homo sapiens, 72 h, K562-Tax (paclitaxel-resistant), 3-day incubation
In short: (§2)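 72 h continuous compound exposure, 37 °C/5% CO2; seeding 25,000–35,000 cells/mL; MTS 1–4 h, OD 490 nm; TCS = OD treated/mean OD control × 100%; technical duplicates, ≥3 biological replicates.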

[6] = tested on: A549; assay: MTS cytotoxicity assay, A549; type: cell-based; details: Homo sapiens, 72 h, 3-day incubation
In short: as §1

[7] = tested on: CEM-DNR; assay: MTS cytotoxicity assay, CEM-DNR; type: cell-based; details: Homo sapiens, 72 h, CEM-DNR (daunorubicin resistant), 3-day incubation
In short: as §1

[8] = tested on: CCRF-CEM; assay: MTS cytotoxicity assay, CCRF-CEM; type: cell-based; details: Homo sapiens, 72 h, 3-day incubation
In short: as §2

[9] = tested on: BJ; assay: MTS cytotoxicity assay, BJ; type: cell-based; details: Homo sapiens, 72 h, BJ normal fibroblasts, 3-day incubation
In short: as §1

[10] = tested on: HCT116; assay: MTS cytotoxicity assay, HCT116; type: cell-based; details: Homo sapiens, HCT-116, 72 h, 3-day incubation
In short: as §1

[11] = tested on: entire cell line panel; assay: MTS cytotoxicity assay, whole panel (summary in words); details: maximal tested concentration
[12] = tested on: CCRF-CEM lymphoblasts; assay: BrDU incorporation analysis (DNA synthesis); type: cell-based, human; details: 24 h incubation
Description: Cells were cultivated as in the method above and pulse-labelled with 10 μM 5-bromo-2-deoxyuridine (BrDU) for 30 min before collection to the test tubes. The cells were washed with cold 1 × PBS and fixed in ice-cold 70% ethanol. Before analysis, they were washed with 1 × PBS and incubated in 2M HCl for 30 min at room temperature. Following neutralization with 0.1M Na2B4O7 (borax), the cells were washed with 0.5% Tween-20 and 1% BSA in 1 × PBS. The cell pellets were stained using a primary anti-BrdU antibody (Exbio, Vestec, Czech Republic) for 30 min at room temperature and a secondary anti-mouse-FITC antibody (Sigma). The samples were then incubated with propidium iodide (0.1 mg mL^−1), treated with RNase A (0.5 mg mL^−1) for 1 h at room temperature in the dark and analysed as above.

[13] = tested on: entire cell line panel
[14] = tested on: HEK 293 cells; details: Resazurin assay
[15] = tested on: CCRF-CEM lymphoblasts; assay: BrU incorporation analysis (RNA synthesis); type: cell-based, human; details: 24 h, 5 × IC50 (high concentration)
[16] = tested on: CCRF-CEM lymphoblasts; assay: Mitotic marker pH3Ser10 flow cytometry; type: cell-based, human; details: 5 × IC50
Description: (§3) CCRF-CEM cells were seeded in 6-well plates at a density of 1 × 10^6/well. […] Cells were then harvested, washed with cold 1 × PBS and fixed in ice-cold 70% ethanol. Fixed cells were incubated overnight at −20 °C, washed in hypotonic citrate buffer, treated with RNase (50 μg mL^−1) and incubated with propidium iodide for 15 min. DNA content was analysed using Becton Dickinson flow cytometer and cell cycle data were analysed in the program ModFitLT (Verity, Carrollton, TX, USA). Apoptosis was measured in a logarithmic model expressing the percentage of the particles with propidium content lower than cells in G0/G1 phase (<G1) of the cell cycle. The mitotic marker pH3Ser10 antibody (Sigma) and secondary anti-mouse-FITC antibody (Sigma) were used for labelling and subsequent flow cytometry analysis of ethanol-fixed CCRF-CEM cells.

[17] = in vitro; details: human
[18] = tested on: U2OS-Nuc cell line; assay: Live cell imaging, pilot experiment; type: cell-based, human; details: 10 µM, 1 h incubation
Description: (§4) U2OS cell line (ATCC, USA) was transduced with premade lentiviral particles (Vectalis-TaKaRa, Japan) with sequences that express fluorescent protein tag mCherry targeted to specific subcellular locations. All cell lines were prepared according to the vendor’s instructions. The U2OS-Nuc cell line was prepared by using rLV.EF1.mCherry-Nuc-9 (cat. n. 0023VCT), containing a NLS sequence that imports protein into the nucleus. The U2OS-ER cell line was transduced by rLV.EF1.mCherry-ER-9 (cat. n. 0025VCT), which contains a calreticulin signal sequence and a KDEL sequence that associates protein with the endoplasmic reticulum. The U2OS-GA cell line was transduced by rLV.EF1.mCherry-Golgi-9 (cat. n. 0022VCT), containing a human GT precursor, a protein localized in Golgi Apparatus. The U2OS-Mito cell line was prepared by using rLV.EF1.mCherry-Mito-9 (cat. n. 0024VCT), containing a mitochondrial targeting sequence.
(§5) U2OS cells with fluorescent fusion proteins (density 1.0 × 10^3 per well) were seeded into 384 CellCarrier plates (Perkin Elmer, Waltham, MA, USA) and pre-incubated for 24 h at 37 °C and 5% CO2. The attached cells were treated with tested compounds in concentration 10 µM for 1 h and subsequently rinsed with fresh media. The live-cell imaging was performed by Cell Voyager CV7000 (Yokogawa, Tokyo, Japan) spinning disc confocal microscopy system at 37 °C in a 5% CO2 atmosphere. Live cells were monitored by a 60 × water immersion objective. The fluorescent signal was excited by lasers (405 nm and 561 nm) and the emission was filtered by bandpass filters (BP 445/45 and BP 595/20). All images were post-processed, and Pearson’s and Mander’s coefficients were calculated using the JACoP plugin in Image-J software.

[19] = tested on: U2OS-ER, U2OS-Mito and U2OS-GA cell lines; assay: Live cell colocalization experiments; type: cell-based, human; details: 10 µM, 1 h, Mander's coefficient
Description: as §4, §5

[20] = tested on: VSV-G pseudotyped HIV-1 particles; assay: microbe, parasite or virus in culture; type: cell-based; details: Human immunodeficiency virus 1, HEK293, 48 h, read-out: IC50i (50% infection inhibition)
[21] = tested on: CA-SP1 processing of HIV-1 Gag polyprotein; assay: Western blot of released virions with anti-HIV-1 CA antibody; type: cell-based
[22] = tested on: CCRF-CEM lymphoblasts; assay: Cell cycle and apoptosis analysis (flow cytometry, propidium iodide); type: cell-based, human; details: 5 × IC50
Description: as §3

Row | Structure (SMILES) | pIC50 [1] | pIC50 [2] | pIC50 [3] | pIC50 [4] | pIC50 [5] | pIC50 [6] | pIC50 [7] | pIC50 [8] | pIC50 [9] | pIC50 [10] | fraction of proliferating BrDU positive CCRF-CEM cells (in words) [12] | cytotoxic effect in the cell line panel (in words) [13] | concentration at which highly toxic to HEK 293 cells [14] | RNA synthesis by BrU (in words) [15] | rate of cell division by mitotic marker pH3Ser10 (in words) [16] | pIC50 [17] | detection in living cells [18] | colocalization with cellular structures [19] | further results
1 | C=C(C)[C@@H]1CC[C@]2(C(=O)O)CC[C@]3(C)[C@H](CC[C@@H]4[C@@]5(C)CC[C@H](O)C(C)(C)[C@@H]5CC[C@]43C)[C@@H]12 [BA, Betulinic acid] | < 4.30 | < 4.30 | < 4.30 | 4.53 | < 4.30 | 4.64 | 4.64 | < 4.30 | < 4.30 | < 4.30 |  |  |  |  |  |  |  |  | cytotoxic effect in the cell line panel (in words) [11]: weak or medium cytotoxic effect
2 | C=C(C)[C@@H]1CC[C@]2(C(=O)NCCCN)CC[C@]3(C)[C@H](CC[C@@H]4[C@@]5(C)CC[C@H](O)C(C)(C)[C@@H]5CC[C@]43C)[C@@H]12 [Compound 3, (3β)-N-(3-Aminopropyl)-3-hydroxylup-20(29)-ene-28-amide] | 6.05 | 6.36 | 5.59 | 6.05 | 6.43 | 5.74 | 5.91 | 6.68 | 5.72 | 6.09 | reduced the fraction of proliferating BrDU positive CCRF-CEM cells | high cytotoxicity | lower than 5 µM | stalled RNA synthesis | low rate of cell division |  |  |  | 
3 | C=C(C)[C@@H]1CC[C@]2(C(=O)NCCCNC3=C4C=CC=[N+]4[B-](F)(F)n4cccc43)CC[C@]3(C)[C@H](CC[C@@H]4[C@@]5(C)CC[C@H](O)C(C)(C)[C@@H]5CC[C@]43C)[C@@H]12 [Compound 4, (3β)-N-[N’-(4,4-Difluoro-4-bora-3a,4a-diaza-s-indacene-8-yl)-3-aminopropyl]-3-hydroxylup-20(29)-ene-28-amide] | < 4.30 | < 4.30 | < 4.30 | < 4.30 | < 4.30 | < 4.30 | < 4.30 | 4.63 | < 4.30 | < 4.30 |  | inactive |  |  |  | < 4.40 | detected in living cells | almost perfectly label mitochondria and endoplasmic reticulum | pIC50 [20]: 4.36; CA forms identified in released viruses (CA-SP1 processing) [21]: Only completely processed p24 CA
4 | C=C(C)[C@@H]1CC[C@]2(C(=O)NCCCN)CC[C@]3(C)[C@H](CC[C@@H]4[C@@]5(C)CC[C@H](OC(=O)CCNC6=C7C=CC=[N+]7[B-](F)(F)n7cccc76)C(C)(C)[C@@H]5CC[C@]43C)[C@@H]12 [Compound 6, (3β)-N-(3-Aminopropyl)-3-[N´-(4,4-difluoro-4-bora-3a,4a-diaza-s-indacene-8-yl)-β-alanyl]-oxy-lup-20(29)-ene-28-amide] | 5.28 | 5.47 | 5.09 | 5.30 | 4.50 | 5.18 | 4.94 | 5.81 | 5.08 | 5.41 | reduced the fraction of proliferating BrDU positive CCRF-CEM cells | high cytotoxicity |  |  | low rate of cell division | 4.92 | detected in living cells | almost perfectly label mitochondria and endoplasmic reticulum | 
5 | C=C(C)[C@@H]1CC[C@]2(C(=O)N3CCN(CCN)CC3)CC[C@]3(C)[C@H](CC[C@@H]4[C@@]5(C)CC[C@H](O)C(C)(C)[C@@H]5CC[C@]43C)[C@@H]12 [Compound 14, (3β)-28-[4-(2-Aminoethyl)piperazine-1-yl]-3-hydroxylup-20(29)-ene-28-one hydrochloride] | 6.40 | 6.36 | 5.80 | 6.38 | 6.28 | 5.90 | 6.46 | 6.54 | 5.80 | 6.41 | reduced the fraction of proliferating BrDU positive CCRF-CEM cells | high cytotoxicity | lower than 5 µM | stalled RNA synthesis | low rate of cell division |  |  |  | increase of the percentage of cells in the S-phase compared to untreated control [22]: about 50%
